Data reported in patent US20150216978A1, “MODULATORS OF DRUGS USING CARBOXYLESTERASE SELECTIVE INHIBITORS” (Rhode Island Board of Education, State of Rhode Island and …, priority 2013, published 2015).

Assays:
[1] = target: T1, CES2 (Homo sapiens, UniProt O00748); experiment: Inhibition of carboxylesterases by Orlistat (human CES2); type: biochemical; details: Orlistat at 1 nM
T1 sequence (O00748 27-559): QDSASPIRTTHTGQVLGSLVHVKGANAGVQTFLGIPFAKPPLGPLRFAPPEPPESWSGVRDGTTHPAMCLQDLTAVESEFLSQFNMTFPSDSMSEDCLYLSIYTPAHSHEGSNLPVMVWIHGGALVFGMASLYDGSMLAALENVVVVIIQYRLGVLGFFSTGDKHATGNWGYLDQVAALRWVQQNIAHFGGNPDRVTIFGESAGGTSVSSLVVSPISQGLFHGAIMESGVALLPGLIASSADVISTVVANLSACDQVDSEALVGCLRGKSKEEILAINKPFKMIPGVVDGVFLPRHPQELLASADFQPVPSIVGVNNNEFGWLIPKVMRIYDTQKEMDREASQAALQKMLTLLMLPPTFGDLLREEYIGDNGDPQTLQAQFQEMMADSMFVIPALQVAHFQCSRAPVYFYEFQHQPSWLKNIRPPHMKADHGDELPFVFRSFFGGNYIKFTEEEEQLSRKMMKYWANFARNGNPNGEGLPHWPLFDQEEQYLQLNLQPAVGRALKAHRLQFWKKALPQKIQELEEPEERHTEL
From the text: (§1) For a decade, Orlistat has been the most used anti-obesity drug. However, the use of Orlistat has been associated with fatal liver and kidney toxicity. This type of toxicity is rare, pointing to a compound effect of multiple factors. Specifically, we assumed that orlistat alters the activity of detoxification enzymes, which may have fatal effects when these factors are perfectly aligned. To shed light on this possibility, we tested Orlistat for the inhibition of carboxylesterases, a class of hydrolytic enzymes with known detoxication significance. […] Orlistat at 1 nM inhibited CES2 by 75%, but no inhibition was detected with CES1. […] In a striking contrast, rat ces1d and ces1e, two major forms of liver CESs, were resistant to Orlistat (Biochem Pharmacol. 2013, 85:439-447).

[2] = target: T2, CES1 (Homo sapiens, UniProt P23141); experiment: Inhibition of carboxylesterases by Orlistat (human CES1); type: biochemical
T2 sequence (P23141 18-567): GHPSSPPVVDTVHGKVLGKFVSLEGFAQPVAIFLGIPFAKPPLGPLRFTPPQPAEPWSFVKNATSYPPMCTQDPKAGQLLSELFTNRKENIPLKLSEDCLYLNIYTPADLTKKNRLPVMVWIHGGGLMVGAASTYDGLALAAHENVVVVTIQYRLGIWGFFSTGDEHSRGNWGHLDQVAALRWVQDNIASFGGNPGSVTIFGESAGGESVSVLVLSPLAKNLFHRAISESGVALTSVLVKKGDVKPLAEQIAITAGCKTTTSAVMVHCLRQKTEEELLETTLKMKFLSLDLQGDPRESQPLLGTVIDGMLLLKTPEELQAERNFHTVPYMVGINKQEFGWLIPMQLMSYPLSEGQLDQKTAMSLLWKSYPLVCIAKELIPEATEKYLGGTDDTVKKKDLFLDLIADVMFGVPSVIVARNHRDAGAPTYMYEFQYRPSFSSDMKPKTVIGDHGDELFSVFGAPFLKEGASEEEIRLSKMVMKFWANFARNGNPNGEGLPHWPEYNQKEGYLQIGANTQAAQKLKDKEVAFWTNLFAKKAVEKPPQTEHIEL
From the text: as §1

[3] = tested on: cells; experiment: Cell viability of cells treated with PPD in the presence or absence of Orlistat; type: cell-based
Method: To shed light on the clinical consequences of inhibited CES2 by Orlistat, cells were treated with PPD in the presence or absence of Orlistat. PPD is a carbamate anticancer prodrug and activated preferentially by CES2 hydrolysis of the ester side chain of the carbamate (20, 21). […] This finding was confirmed in CES2 induced condition (Brit J Pharmacol. 2013, 168:1989-1999).

[4] = target: T3, mouse ces2c (Mus musculus, UniProt Q91WG0); details: 1 nM Orlistat; cited from earlier work
T3 sequence (Q91WG0 27-561): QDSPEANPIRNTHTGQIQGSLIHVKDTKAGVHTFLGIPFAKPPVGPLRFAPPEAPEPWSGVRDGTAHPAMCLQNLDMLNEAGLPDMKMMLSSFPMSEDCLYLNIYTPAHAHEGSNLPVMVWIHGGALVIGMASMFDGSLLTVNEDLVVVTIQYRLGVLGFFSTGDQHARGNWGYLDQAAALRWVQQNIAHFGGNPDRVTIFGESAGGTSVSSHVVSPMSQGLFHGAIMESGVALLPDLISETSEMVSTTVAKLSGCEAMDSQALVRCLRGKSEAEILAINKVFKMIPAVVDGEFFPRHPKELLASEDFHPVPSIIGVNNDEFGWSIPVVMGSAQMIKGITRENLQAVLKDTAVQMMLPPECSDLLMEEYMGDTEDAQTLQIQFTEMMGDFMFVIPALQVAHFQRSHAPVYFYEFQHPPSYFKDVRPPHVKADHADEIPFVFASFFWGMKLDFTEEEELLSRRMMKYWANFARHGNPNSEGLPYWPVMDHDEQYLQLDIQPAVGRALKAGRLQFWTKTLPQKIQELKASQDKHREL

[5] = target: T4, mouse ces2e (Mus musculus, UniProt Q8BK48); details: 1 nM Orlistat; cited from earlier work
T4 sequence (Q8BK48 27-559): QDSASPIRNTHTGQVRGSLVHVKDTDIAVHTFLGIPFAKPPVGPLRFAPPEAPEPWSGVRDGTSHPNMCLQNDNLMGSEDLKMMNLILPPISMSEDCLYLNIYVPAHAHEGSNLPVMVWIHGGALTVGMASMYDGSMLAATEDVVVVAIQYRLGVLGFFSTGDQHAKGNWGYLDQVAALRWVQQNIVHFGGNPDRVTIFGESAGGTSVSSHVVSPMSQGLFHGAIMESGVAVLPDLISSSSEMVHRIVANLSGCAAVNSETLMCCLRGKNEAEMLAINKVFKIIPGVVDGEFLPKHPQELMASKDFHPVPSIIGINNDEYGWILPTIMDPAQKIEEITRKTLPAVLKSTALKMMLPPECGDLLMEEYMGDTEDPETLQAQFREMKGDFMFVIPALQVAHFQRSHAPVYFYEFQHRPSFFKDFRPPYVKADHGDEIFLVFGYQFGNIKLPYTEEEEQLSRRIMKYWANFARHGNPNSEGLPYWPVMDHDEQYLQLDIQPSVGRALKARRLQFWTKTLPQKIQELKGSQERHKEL

[6] = target: T5, ces1d (Mus musculus, UniProt Q8VCT4); details: 1 nM Orlistat; cited from earlier work
T5 sequence (Q8VCT4 19-565): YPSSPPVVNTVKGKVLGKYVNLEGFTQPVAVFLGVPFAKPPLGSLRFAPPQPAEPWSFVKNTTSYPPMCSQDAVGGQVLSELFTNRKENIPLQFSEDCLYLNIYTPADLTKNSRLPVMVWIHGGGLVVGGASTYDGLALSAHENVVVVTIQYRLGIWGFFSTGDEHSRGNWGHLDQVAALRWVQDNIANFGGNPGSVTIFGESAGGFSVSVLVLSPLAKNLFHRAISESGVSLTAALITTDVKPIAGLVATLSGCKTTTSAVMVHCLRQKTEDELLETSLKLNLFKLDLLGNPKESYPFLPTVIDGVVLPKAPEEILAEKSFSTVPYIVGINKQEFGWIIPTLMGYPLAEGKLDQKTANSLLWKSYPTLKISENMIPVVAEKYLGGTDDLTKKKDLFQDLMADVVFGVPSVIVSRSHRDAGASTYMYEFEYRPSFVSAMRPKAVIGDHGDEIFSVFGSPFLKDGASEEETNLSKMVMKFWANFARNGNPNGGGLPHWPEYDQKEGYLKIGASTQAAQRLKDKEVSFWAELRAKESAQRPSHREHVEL

[7] = target: T6, rat ces1d (Rattus norvegicus, UniProt P16303); details: major form of rat liver CES; cited from earlier work
T6 sequence (P16303 19-565): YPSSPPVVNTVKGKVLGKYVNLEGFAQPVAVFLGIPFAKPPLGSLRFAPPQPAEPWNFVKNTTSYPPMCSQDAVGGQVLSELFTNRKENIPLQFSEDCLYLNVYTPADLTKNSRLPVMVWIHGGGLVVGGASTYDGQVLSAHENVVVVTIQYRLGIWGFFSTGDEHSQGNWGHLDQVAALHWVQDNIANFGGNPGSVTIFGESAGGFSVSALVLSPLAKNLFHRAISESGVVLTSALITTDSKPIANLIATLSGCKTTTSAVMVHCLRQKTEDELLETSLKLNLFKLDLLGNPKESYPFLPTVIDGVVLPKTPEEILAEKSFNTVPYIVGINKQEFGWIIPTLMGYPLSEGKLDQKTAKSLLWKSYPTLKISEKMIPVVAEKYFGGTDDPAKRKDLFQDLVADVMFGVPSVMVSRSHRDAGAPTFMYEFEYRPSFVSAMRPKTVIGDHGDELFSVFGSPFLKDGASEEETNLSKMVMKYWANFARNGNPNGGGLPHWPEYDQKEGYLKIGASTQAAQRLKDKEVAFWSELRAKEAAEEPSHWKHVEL

[8] = target: T7, rat ces1e (Rattus norvegicus, UniProt Q63108); details: major form of rat liver CES; cited from earlier work
T7 sequence (Q63108 19-561): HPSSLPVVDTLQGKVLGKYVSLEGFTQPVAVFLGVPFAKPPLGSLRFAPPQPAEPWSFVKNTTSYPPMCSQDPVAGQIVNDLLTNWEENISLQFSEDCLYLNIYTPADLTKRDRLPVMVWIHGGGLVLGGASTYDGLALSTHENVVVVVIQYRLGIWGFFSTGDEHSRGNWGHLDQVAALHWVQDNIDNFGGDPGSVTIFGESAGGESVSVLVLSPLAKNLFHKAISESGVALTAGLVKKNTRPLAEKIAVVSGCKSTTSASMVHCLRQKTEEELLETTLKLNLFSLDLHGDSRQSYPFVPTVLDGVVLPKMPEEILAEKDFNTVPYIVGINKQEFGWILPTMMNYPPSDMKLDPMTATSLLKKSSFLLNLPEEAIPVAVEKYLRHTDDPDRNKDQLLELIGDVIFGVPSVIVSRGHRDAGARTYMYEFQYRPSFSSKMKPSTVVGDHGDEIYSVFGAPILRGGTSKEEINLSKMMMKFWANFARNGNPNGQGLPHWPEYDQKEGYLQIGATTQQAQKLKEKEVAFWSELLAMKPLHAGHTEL

[9] = target: T1, CES2; experiment: Cellular inhibition of CES2 in LS180 cells, lysates tested by native gel electrophoresis and Western blotting; type: cell-based; set-up: endogenous in cells; host or cells: LS180
Method: The cellular activity of Orlistat was examined on the inhibition of CES2 within cells. To test this possibility, LS180 cells (a colon adenocarcinoma line) were treated with orlistat for 1-24 h, washed extensively to remove free Orlistat and lysed by sonication. The lysates were then tested for the hydrolytic activity by native gel electrophoresis. […] We next tested whether the less inhibition by prolonged incubation was due to increased expression of CES2. Western blotting was performed with the same gel stained for activity. As predicated, prolonged incubation increased CES2 expression (FIG. 3B). These findings established that regeneration of CES2 requires new synthesis of CES2.

[10] = target: T1, CES2; experiment: Irreversibility: human liver microsomes incubated with Orlistat, native gel electrophoresis, activity staining (CES2); type: biochemical; set-up: from tissue; host or cells: human liver microsomes
Method: It was tested whether the inhibition involves covalent interactions between Orlistat and CES2. Microsomes from human livers (CES1 and CES2) were incubated with Orlistat, resolved by native gel electrophoresis to remove free Orlistat, and stained for the remaining activity.

## CCCCCCCCCCC[C@@H](C[C@@H]1OC(=O)[C@H]1CCCCCC)OC(=O)[C@H](CC(C)C)NC=O [Orlistat]
[1]
  inhibition of CES2: 75%
[2]; 100 nM orlistat
  inhibition at 0.1 µM: ~30%
[2]; Orlistat at 1 nM
  inhibition of CES1: no inhibition
[3]; PPD plus Orlistat
  reduction of cell viability by PPD (carbamate) in the presence of Orlistat: significantly reversed
[3]; pretreatment with Orlistat
  reduction of the cell killing activity of PPD: ≤ 60%
[3]; treatment with substance alone
  cell viability: no changes
[4]
  inhibition of mouse ces2c: 90%
[5]
  inhibition of mouse ces2e: 55%
[6]
  inhibition of ces1d: 12%
[7]
  sensitivity of rat ces1d to Orlistat: resistant
[8]
  sensitivity of rat ces1e to Orlistat: resistant
[9]; 1-h incubation
  inhibition of CES2 activity in cells: ~80%
[9]; prolonged incubation 24 h
  CES2 expression (Western blotting): increased
  inhibition of CES2 activity in cells: less effective
[9]; treated for 6 h
  inhibition of CES2 activity in cells: Comparable inhibition
[10]; human liver microsomes, free Orlistat removed by native gel electrophoresis
  remaining activity of CES2 upon incubation with Orlistat: profoundly reduced
[10]; inhibition persists after removal of Orlistat by electrophoresis
  type of inhibition of CES2: irreversible inhibitor
